The values that follow come from paper PMC5628898, “Does consumption of red grapefruit juice alter naringenin concentrations in milk produced by breastfeeding mothers?” (PLoS ONE, 2017).

Read-outs that look alike come from different tables or passages of the source.

For data set [1] the following is noted: rat, cited from earlier work.
Data set [2] has as its system organic anion transporting polypeptide (OATP). Set-up: method as in PMID 23794501. The settings on record: cited from earlier work.
A short description of data set [3]: Naringenin concentration in milk of breastfeeding mothers on naringenin-restricted diet, before and after 250 ml red grapefruit juice (HPLC after deconjugation). The conditions noted are these: for k el / Cmax / AUC, mean / AUC, median: human milk; for k el: last points; for Cmax / AUC, mean / AUC, median: n 14; for AUC, mean / AUC, median: trapezoidal method. The data set is classed as in vivo. From the text: Prior to enrollment, each volunteer was informed about the course and aim of the study, and signed the informed consent. They were also provided with oral and written instructions on the diet that disallowed consumption of any naringenin-containing foods and beverages. The volunteers agreed to follow the diet and not to take any vitamin supplements or any other food supplements for the duration of their participation in the study. They followed the diet for a total of 5 days, refraining from eating foods containing larger quantities of naringenin, such as citrus fruits, citrus fruit juices, citrus fruit pulps, tomatoes and tomato-containing food products, aromatic herbs. For the first two days of the study (pre-exposure) the volunteers collected breast milk samples every 12 hours, each in the amount of four to six ml. On the third day of the study they drank a single 250 ml serving of red grapefruit juice (a 250 ml bottle) in the morning on an empty stomach. In this part of the experiment, the volunteers collected breast milk samples at the following time points: 0 (directly before drinking the juice) and 1, 2, 3, 4, 5, 6, 12, 18, 24, 36 hours post-exposure. Milk samples were collected from full breasts. Milk was collected into chemically pure disposable plastic test tubes.
The samples were frozen by the volunteers at –20°C, regularly collected from the volunteers by the investigator, transported in a laboratory deep freezer, and frozen to –80°C until analysis. Each sample was labelled with the volunteer's initials and with the date and time of sampling. During the study, we remained in constant telephone contact with the volunteers. A commercial 100% grapefruit juice originating from ecological farms in Israel, in 250 ml bottles, were used in the study. The juice was purchased from a local grocery wholesaler. All the bottles were labelled with the same lot number.
Naringenin was extracted according to the method described by Song et al. with minor changes. In brief, an aliquot (0.5 ml) of undiluted human milk was defatted two times with 2-ml of hexane. After the lipid removal, 25 μl of L-Ascorbic acid (2.7 mmol/l in ultrapure water), 25 μl of Na2-ethylenediaminetetraacetic acid (2.2 mmol/l in ultrapure water) and 3 ml of pepsin (40 mg/ml in 0.1 N HCl) were added. The samples were incubated in a ThermoMixer C (Eppendorf AG., Germany) for 15 min at 37°C and at 300 rpm. Then, the pH of the sample was adjusted to 4.5 with 1.0 N NaOH and 3.86 kU of β-glucuronidase with sulfatase contaminant was added. Afterwards the samples were incubated for 45 min at 37°C and at 300 rpm in a ThermoMixer C. After deconjugation the potential metabolites (glucuronides and sulfate derivatives) to aglycones using β-glucuronidase/sulfatase treatment, naringenin was extracted with a 3-ml aliquot of ethyl acetate of tree times, dried under vacuum and resuspended in 200 μl of mobile phase B before analysis.
Naringenin analysis was done on a Shimadzu HPLC system (Kyoto, Japan), equipped with binary pump (LC-20 AD), degasser (DGU-20A3), refrigerated autosampler (SIL-20 AC, set at 8°C), a column oven (CTO-20 AC, 30°C), a diode array detector (SPD-M20A) and a mass spectrometry detector (2010EV). Separations were performed on Kinetex XB-C18 column (100×2.1 mm, 2.6 μm particle size, Phenomenex) at 0.2 ml min^−1 flow rate. The mobile phase consisted of A: 0.4% formic acid in ultrapure water and B: 0.4% formic acid, 0.4% isopropyl alcohol in methanol. The initial conditions of gradient program were set at 98:2 (A/B) followed by a linear gradient to 55:45 (A/B) at 15 min, 20:80 (A/B) at 30 min, 98:2 (A/B) at 35 min and at 40 min, stop. The injection volume was 10 μl. Naringenin was quantified at 287 nm. MS spectra were acquired in positive ion mode over the range of m/z 50–500, both using SCAN and SIM acquisition mode (the set of SIM included 273,25 m/z). […]

Setting [4] is: female, human, in vivo, Mean naringenin concentration in human milk.

In the case of `O=C1C[C@@H](c2ccc(O)cc2)Oc2cc(O[C@@H]3O[C@H](CO)[C@@H](O)[C@H](O)[C@H]3O)cc(O)c21` [7-glucoside], the “Time at which increase in serum naringenin concentration was observed” value (“Time at which increase” for short) in data set [1] (in vivo) is listed as “three”.
For `O=C1C[C@@H](c2ccc(O)cc2)Oc2cc(O)cc(O)c21` [naringenin], the “Time at which increase” value in data set [1] (after feeding the compound) is “three”. Also, the “Inhibition of OATP” value in data set [2] is recorded as “potent inhibitor”. For the same molecule, the “Range of naringenin concentrations in initial (baseline) milk samples” value in data set [3] (female, human, in vivo) lay in the range of 420.86 to 1568.89 nmol/L. Moreover, in data set [3] (female, human, in vivo, 250 ml, post-exposure segment, n 11, read-out: Kel (elimination constant), mean (converted)), the k el is 3.89e-06 s⁻¹. Moreover, the k el in data set [3] (female, human, in vivo, 250 ml, post-exposure segment, n 11, read-out: Kel (elimination constant), median (converted)) is 3.61e-06 s⁻¹. In data set [3] (female, human, in vivo, 250 ml, post-exposure segment, read-out: Cmax, mean), the Cmax amounted to 908 nM. In addition, in data set [3] (female, human, in vivo, 250 ml, post-exposure segment, read-out: Cmax, median), the peak concentration (Cmax) was found to be 714 nM. The “Mean naringenin concentration in human milk” value in data set [3] (female, human, in vivo, 4 h) turned out to be 908.253 nmol/L. In addition, the “Mean naringenin concentration in human milk” value in data set [3] (female, human, in vivo, 12 h) is 868.960 nmol/L. In data set [3] (setting [4]), the concentration at 0 h was 674 nM, the concentration at 1 h is 773 nM, the concentration at 2 h turned out to be 651 nM and the concentration at 3 h is 649 nM. Moreover, in data set [3] (setting [4]), the concentration at 4 h is 908 nM, the concentration at 5 h was 704 nM, the concentration at 6 h came to 650 nM and the concentration at 12 h was 869 nM. In data set [3] (setting [4]), this molecule had a concentration at 18 h of 772 nM, a concentration at 24 h of 728 nM, a concentration at 36 h of 702 nM and a concentration at -12 h of 702 nM. Moreover, in data set [3] (setting [4]), the concentration at -24 h is 844 nM, the concentration at -36 h came to 910 nM and the concentration at -48 h came out at 823 nM. Further, in data set [3] (female, human, in vivo, pre-exposure segment, n 5, read-out: Kel (elimination constant), mean (converted)), the k el is 5.56e-06 s⁻¹. The k el in data set [3] (female, human, in vivo, pre-exposure segment, n 5, read-out: Kel (elimination constant), median (converted)) was 5.56e-06 s⁻¹. Further, in data set [3] (female, human, in vivo, pre-exposure segment, read-out: Cmax, mean), the Cmax was 910 nM. For the same molecule, in data set [3] (female, human, in vivo, pre-exposure segment, read-out: Cmax, median), the Cmax came to 762 nM. Besides, the Cmax in data set [3] (post-exposure segment, read-out: Cmax, mean) amounted to 908 nM. Also, in data set [3] (post-exposure, 0 h to 36 h), the “AUC, mean” value is recorded as 27419 (nmol/l)*h and the “AUC, median” value is 23715 (nmol/l)*h. In addition, in data set [3] (pre-exposure, -36 h to 0 h), the “AUC, mean” value is 27455 (nmol/l)*h and the “AUC, median” value is 26515 (nmol/l)*h.
In the case of `C[C@@H]1O[C@@H](O[C@H]2[C@H](Oc3cc(O)c4c(c3)O[C@H](c3ccc(O)cc3)CC4=O)O[C@H](CO)[C@@H](O)[C@@H]2O)[C@H](O)[C@H](O)[C@H]1O` [naringin, 4’, 5,7-trihydroxyflavanone-7-rhamnoglucoside], the “Time at which increase” value in data set [1] (after feeding the compound) is listed as “ten”.
